From patent US20040204375A1, “Gene delivery compounds” (priority 2001, published 2004)

Key:
HT29 cells [1] = experiment: Screening assay for gene transfer activators: adenovirus luciferase or β-galactosidase constructs on confluent cells with test compound; assay type: cell-based, human; parameters: key to Activity (gene transfer activator): +++ = more active; ++ = active; + = less active; settings: for Activity (gene transfer activator): gene transfer in presence vs absence of test compound
Method: A gene transfer activating compound is identified by an assay which determines whether gene transfer occurs to a greater extent in the presence of a test compound than in the absence. For example, confluent cells plated in multi-well cell culture units are exposed to adenovirus luciferase or β-galactosidase constructs in the presence of the test compound. The test compound is administered to cells before, after or concurrently with the adenovirus. The extent of gene transfer is measured by visual inspection or quantitative measurement of luciferase or β-galactosidase in the presence and absence of the test compound.
HT29 cells are grown in 96-well plates. The cells are seeded at near confluency, about 300,000 cells per well, and infected with adenovirus 3-4 days later. […] For screening purposes, cells are grown on plastic. […] The activity of candidate compounds is also confirmed using polarized monolayers grown on filters. Once confluent, HT29 cells are very difficult to transduce with adenoviral constructs. Fewer than 1 in 100 cells express adenoviral transgenes at multiplicity of infection (MOI) of approximately 50. A replication deficient adenovirus encoding firefly luciferase or the E. coli LacZ gene (β-galactosidase) at an MOI of 50 for each well of cells in low serum medium is applied for 4 hours at 37° C. Test drugs are incubated along with the virus. Forty-eight hours later, the cells are assayed for β-galactosidase or luciferase by standard techniques. For example, β-galactosidase is assayed by incubating cells with a β-galactosidase substrate such as 1 mg/ml X-gal 5-bromo-4-chloro-3-indolyl B-D-galactopyranoside (X-gal), overnight at 37° C. When X-gal is cleaved by β-galactosidase, a bright blue precipitate is formed. The intensity of the blue color can be estimated visually or measured by optical densitometry to evaluate the efficiency of adenoviral transduction. Luciferase is assayed using a commercially available kit (Promega) which allows quantitative measurements of adenoviral gene transfer.

[2] = system: IB3 cystic fibrosis airway epithelial cells; experiment: Adenoviral luciferase gene transfer to IB3 cells (Example 3); assay type: cell-based; settings: 100 micromolar compound, MOI 5 or 10, FIG. 3
Method: IB3 cystic fibrosis airway epithelial cells are grown in 96-well plates. The cells are seeded at near confluency, about 300,000 cells per well, and infected with adenovirus 3-4 days later. A replication deficient adenovirus encoding luciferase is applied at an MOI of 5 or 10 to wells of cells in low serum medium for 4 hours at 37° C. Compound 6975 is incubated along with the virus at a concentration of 100 micromolar. A set of cells is incubated with virus but no gene transfer activating compound. Forty-eight hours later, the cells are assayed for luciferase by standard techniques. FIG. 3 presents the results of this assay in a graph.

HT29 cells [3] = experiment: Adenoviral LacZ gene transfer to HT29 cells, comparison with EGTA (Example 4); assay type: cell-based, human; settings: 100 micromolar compound vs 5 millimolar EGTA, MOI 10
Method: HT29 cells are grown in 96-well plates. The cells are seeded at near confluency, about 300,000 cells per well, and infected with adenovirus 3-4 days later. […] A replication deficient adenovirus encoding LacZ is applied at an MOI of 10 to wells of cells in low serum medium for 4 hours at 37° C. Compound 6975 is incubated along with the virus at a concentration of 100 micromolar. A second set of cells is incubated with virus but no gene transfer activating compound and a third set of cells is incubated with virus and 5 millimolar EGTA. Forty-eight hours later, the cells are assayed for […] by standard techniques.

[4] = system: PC-3 human prostate cell tumors; experiment: In vivo adenoviral gene transfer to prostate tumors, PNP activity (Example 5); parameters: species or system mice; settings: 1 mM compound, 2-3×10^9 adenoviral particles per tumor, FIG. 5
Method: Prostate tumors are established in suitable hosts and PNP activity assayed in the presence or absence of adenovirus. Approximately 2-3×10^9 adenoviral particles are administered per tumor in the presence of 1 mM of compound 6975 or in the absence of the compound. Transgene activity is also assayed in livers. Further details of the method are described in (3).

HT29 cells [5] = experiment: Adenoviral LacZ gene transfer to confluent HT29 cells, β-galactosidase assay (Example 2); assay type: cell-based, human; settings: for activation of adenovirus gene transfer: HT29 cells, LacZ adenovirus MOI 0.1-10, 4 hours, assay 48 hours later
Method: HT29 or HeLa cells are grown in 96-well plates. The HT29 cells are seeded at near confluency, about 300,000 cells per well, and infected with adenovirus 3-4 days later. Confluent HeLa cells are used as a positive control. […] A replication deficient adenovirus encoding the E. coli LacZ gene is applied at an MOI of 0.1-10 to wells of cells in low serum medium for 4 hours at 37° C. Gene transfer activating compounds are incubated along with the virus at concentrations of 10 micromolar or 100 micromolar. A set of cells is incubated with virus but no gene transfer activating compound. Forty-eight hours later, the cells are assayed for β-galactosidase by standard techniques. […] FIGS. 2 and 6 illustrate the results using compound 6975 and 8496 respectively.

Row | Structure (SMILES) | Activity (gene transfer activator) (HT29 cells [1]) | activation of adenovirus gene transfer (HT29 cells [5]; 10 micromolar compound) | activation of adenovirus gene transfer (HT29 cells [5]; 100 micromolar compound) | further results
1 | [H]/N=C(/N/N=C(\C)c1ccccn1)Nc1ccccc1 [Compound 6975] | +++ | show activation of adenovirus gene transfer | show activation of adenovirus gene transfer | activating adenovirus-mediated gene transfer and expression in cells (HT29 cells [1]; FIG. 1): effective in activating adenovirus-mediated gene transfer and expression in cells; adenoviral gene transfer of luciferase to IB3 cells [2]: activates adenoviral gene transfer of luciferase; adenovirus gene transfer efficiency compared with EGTA (HT29 cells [3]): activates adenovirus gene transfer more efficiently than EGTA; in vivo adenoviral gene transfer to tumors [4]: activates in vivo adenoviral gene transfer to PC-3 human prostate cell tumors in mice
2 | C/C(=N/NC(=N)NCc1ccccn1)c1ccccn1 [Compound 7064] | + | – | – | –
3 | [H]/N=C(\N)N/N=C(\C)c1ccccn1 [Compound 6883] | + | – | – | –
4 | C/C(=N/N=C(/N)NO)c1ccccn1 [Compound 7036] | ++ | – | – | –
5 | [H]/N=c1/ncn([C@@H]2O[C@H](CO)[C@@H](O)[C@H]2O)c2[nH]cnc12 [Compound 8496] | +++ | show activation of adenovirus gene transfer | show activation of adenovirus gene transfer | adenoviral gene transfer of LacZ to HT29 cells (HT29 cells [5]; FIG. 6): activates adenoviral gene transfer of LacZ to HT29 cells
6 | [H]/N=C(/N/N=C(\C)c1ccccn1)Nc1ccccc1 [Compound 6898] | + | – | – | –
